Like-named read-outs stand apart in the source and are kept apart here.
Legend:
[1] = test system: CSF1R (M-NFS-60 cells); test: Cell Titer-Glo viability assay using M-NFS-60 cells; format: cell-based; conditions: Mus musculus, read-out: Cellular CSF1R activity by M-NFS-60 viability assay (IC50 activity range)
Protocol: M-NFS-60 cells were cultured in RPMI-1640 medium containing 10% FBS, 0.05 mM 2-Mercaptoethanol, penicillin (100 U/ml)/streptomycin ([…]) and supplemented with 62 ng/ml recombinant human M-CSF at 37° C./5% CO2. Aliquots of the cells were seeded into a 96-well plate (2×10^5 cells in 100 μl/well) and then incubated at 37° C./5% CO2 1 h. Dissolve compound in 100% DMSO to make 10 mM stock solutions (Aliquots stored in the Nitrogen Cabinet). Dilute 10 mM compounds solutions for 2-fold in 100% DMSO to get 5 mM solutions (10 μl+10 μl DMSO), and then make a 3-fold serial dilution (10 μl+20 μl DMSO) for 10 doses. For reference compounds: Dilute 10 mM compounds solutions for 20-fold in 100% DMSO to get 0.5 mM solutions (2 μl+38 μl DMSO), and then make a 3-fold serial dilution (10 μl+20 μl DMSO) for 8 doses. The 96-well plate was equilibrated at room temperature for 30 min. 50 μl of CellTiter-Glo® Reagent added to each well and mixed for 2 min on an orbital shaker to induce cell lysis. The 96-well plate was incubated at room temperature for 10 min to stabilize luminescent signal. Luminescent was measured […] by EnVison plate reader. Calculations and Formulas: The following calculations and formulas are used for data analysis using XL Fit software: The curve fitting was made using the Sigmoidal Dose-Response Model (Fit model, 205).

[2] = biological target: CSF1R (Homo sapiens, UniProt P07333); test: KINOMEscan competition binding assay for CSF1R; design: DNA tag for qPCR (not a peptide); host or cells: E. coli/T7 phage or HEK-293
Sequence of CSF1R (P07333 20-972): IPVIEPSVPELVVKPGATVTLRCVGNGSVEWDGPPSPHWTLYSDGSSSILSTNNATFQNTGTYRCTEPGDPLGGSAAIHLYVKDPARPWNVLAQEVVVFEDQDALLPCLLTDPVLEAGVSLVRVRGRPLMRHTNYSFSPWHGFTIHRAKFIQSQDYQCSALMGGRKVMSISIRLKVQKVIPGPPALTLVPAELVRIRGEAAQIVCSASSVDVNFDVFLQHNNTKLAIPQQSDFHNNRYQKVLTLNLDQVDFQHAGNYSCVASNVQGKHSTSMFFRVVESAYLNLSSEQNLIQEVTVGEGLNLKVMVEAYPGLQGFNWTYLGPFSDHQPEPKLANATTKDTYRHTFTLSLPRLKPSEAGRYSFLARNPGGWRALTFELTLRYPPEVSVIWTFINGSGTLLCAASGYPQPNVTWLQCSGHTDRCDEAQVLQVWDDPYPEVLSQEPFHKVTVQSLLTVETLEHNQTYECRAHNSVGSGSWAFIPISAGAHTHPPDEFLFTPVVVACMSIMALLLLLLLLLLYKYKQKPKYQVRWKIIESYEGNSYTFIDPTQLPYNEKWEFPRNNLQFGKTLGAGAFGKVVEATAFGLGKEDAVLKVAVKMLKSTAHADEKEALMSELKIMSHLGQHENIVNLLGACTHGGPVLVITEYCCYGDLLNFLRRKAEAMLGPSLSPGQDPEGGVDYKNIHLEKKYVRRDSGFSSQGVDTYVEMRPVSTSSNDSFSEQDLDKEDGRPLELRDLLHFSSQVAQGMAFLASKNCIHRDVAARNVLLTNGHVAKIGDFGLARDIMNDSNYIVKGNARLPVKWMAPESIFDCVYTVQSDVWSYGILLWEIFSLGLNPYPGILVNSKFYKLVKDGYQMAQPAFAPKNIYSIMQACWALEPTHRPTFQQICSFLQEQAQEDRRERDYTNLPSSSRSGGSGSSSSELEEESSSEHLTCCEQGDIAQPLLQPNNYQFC
Protocol: KINOMEscan™ is based on a competition binding assay that quantitatively measures the ability of a compound to compete with an immobilized, active-site directed ligand. The assay is performed by combining three components: DNA-tagged kinase; immobilized ligand; and a test compound. The ability of the test compound to compete with the immobilized ligand is measured via quantitative PCR of the DNA tag.
E. coli were grown to log-phase and infected with T7 phage and incubated with shaking at 32° C. until lysis. The lysates were centrifuged and filtered to remove cell debris. The remaining kinases were produced in HEK-293 cells and subsequently tagged with DNA for qPCR detection. Streptavidin-coated magnetic beads were treated with biotinylated small molecule ligands for 30 minutes at room temperature to generate affinity resins for kinase assays. The liganded beads were blocked with excess biotin and washed with blocking buffer (SeaBlock (Pierce), 1% BSA, 0.05% Tween 20, 1 mM DTT) to remove unbound ligand and to reduce non-specific binding. Binding reactions were assembled by combining kinases, liganded affinity beads, and test compounds in 1× binding buffer (20% SeaBlock, 0.17×PBS, 0.05% Tween 20, 6 mM DTT). Test compounds were prepared as 111× stocks in 100% DMSO. Kds were determined using an 11-point 3-fold compound dilution series with three DMSO control points. All compounds for Kd measurements are distributed by acoustic transfer (non-contact dispensing) in 100% DMSO. The compounds were then diluted directly into the assays such that the final concentration of DMSO was 0.9%. In case of % inhibition, test compounds were prepared as 40× stocks in 100% DMSO and directly diluted into the assay. All reactions performed in polypropylene 384-well plate. Each was a final volume of 0.02 ml. The assay plates were incubated at room temperature with shaking for 1 hour and the affinity beads were washed with wash buffer (1×PBS, 0.05% Tween 20). The beads were then re-suspended in elution buffer (1×PBS, 0.05% Tween 20, 0.5 μM non-biotinylated affinity ligand) and incubated at room temperature with shaking for 30 minutes. The kinase concentration in the eluates was measured by qPCR.
The CSF1R kinase binding activity results are shown in tables 1 (Kd) and 2 (percent inhibition at a concentration of 0.1 uM of compound to be tested).
Binding constants (Kds) were calculated with a standard dose-response curve using the Hill equation: […]
The Hill Slope was set to −1.
Curves were fitted using a non-linear least square fit with the Levenberg-Marquardt algorithm.
Binding % inhibition were calculated with as below:
[formula] • negative control=DMSO (100% Ctrl) • positive control=control compound (0% Ctrl)

[3] = read-out: CSF1R kinase binding activity, Percent (%) inhibition
[4] = read-out: CSF1R kinase binding activity, Range

Row | Structure (SMILES) | IC50 [1] | inhibition at 0.1 µM [2, 3] | inhibition at 0.1 µM [2, 4] | Kd ([2]; read-out: CSF1R kinase binding activity (Kd))
1 | COc1cc2nccc(Oc3ccc(NC(=O)c4nn(CC5COC5)cc4OCC(F)(F)F)nc3)c2cc1OC [Compound 92] | < 1000 nM | 100% | ≥ 80% | 
2 | COc1cc2nccc(Oc3ccc(NC(=O)c4nn(C5CC5)cc4OC(C)C)nn3)c2cc1OC [Compound 147] | 1000 to 10000 nM | 85% | ≥ 80% | 
3 | CNCCn1cc(OCC(F)(F)F)c(C(=O)Nc2ccc(Oc3ccnc4cc(OC)c(OC)cc34)c(F)c2)n1 [Compound 155] | 1000 to 10000 nM | 22% | < 50% | 
4 | COc1cc2nccc(Oc3ccc(NC(=O)c4nn(C5CCN(C)C5)cc4OCC(F)(F)F)cc3)c2cc1OC (stereo not shown) [Compound 100] | 1000 to 10000 nM | 36% | < 50% | 
5 | CCCn1cc(OCC(F)(F)F)c(C(=O)Nc2ccc(Oc3ccnc4cc(OC)c(OC)cc34)cn2)n1 [Compound 7] | < 1000 nM | 97% | ≥ 80% | < 100 nM
6 | COc1cc2nccc(Oc3ccc(NC(=O)c4nn(C5CC5)cc4NCCC(F)(F)F)nn3)c2cc1OC [Compound 146] | 1000 to 10000 nM | 43% | < 50% | 
7 | COc1cc2nccc(Oc3ccc(NC(=O)c4nn(C5CC5)cc4NCC(F)(F)F)nc3)c2cc1OC [Compound 145] | < 1000 nM | 94% | ≥ 80% | 
8 | CCCn1cc(OCC2CCOCC2)c(C(=O)Nc2ccc(Oc3ccnc4cc(OC)c(OC)cc34)cn2)n1 [Compound 164] | ≥ 10000 nM | 73% | 50 to 80% | 
9 | COc1cc2nccc(Oc3ccc(NC(=O)c4nn(C5CCNC5)cc4OCC(F)(F)F)cn3)c2cc1OC (stereo not shown) [Compound 132] | ≥ 10000 nM | 16% | < 50% | 
10 | COc1cc2nccc(Oc3ccc(NC(=O)c4nn(C5CCOC5)cc4OCC(F)(F)F)nn3)c2cc1OC (stereo not shown) [Compound 128] | 1000 to 10000 nM | 94% | ≥ 80% | 

Reference: US12162858B2, “Quinoline derivatives as inhibitors of AXL/MER RTK and CSF1R” (QURIENT CO., LTD., priority 2018, dated 2024)
